Columns and labels:
3T3-L1 Mouse Adipocytes = experiment: Free fatty acid levels in cultured 3T3-L1 mouse adipocytes (isoproterenol stimulated); assay type: cell-based; details: free fatty acid in medium; 5 μM peptide, 20-22 h pre-incubation then 3 h with 0.1 nM isoproterenol; isoproterenol alone = 100%
How it was run: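 3T3-L1 cells differentiated 12 days, insulin withdrawn, then peptides added on day 13 at 5 μM (0.1% DMSO) for 20-22 h at 37° C. After 3 h in assay buffer, medium free fatty acids read at 540 nm. Values expressed as percent of 0.1 nM isoproterenol-alone control.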

C2C12 Cells = experiment: Glucose utilization in cultured C2C12 cells (myotubes); assay type: cell-based, mouse; details: glucose concentration in medium relative to untreated cells; 5 μM peptide, 22 h
How it was run: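 Differentiated mouse myotubes (5 days in 2% horse serum) serum-starved 5 h, then treated 22 h at 37 °C with peptide at 5 μM final (0.1% DMSO) in low-glucose (1 g/L) DMEM. Glucose remaining in medium measured colorimetrically at 570 nm. Expressed as percent of untreated control, from 2–3 experiments in triplicate.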

H4-IIE Cells = experiment: Glucose production in cultured H4-IIE cells; assay type: cell-based, rat; details: glucose concentration in medium relative to untreated cells; 5 μM peptide, 24 h
How it was run: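 Rat H4-IIE hepatoma cells primed overnight in glucose-free DMEM with 2 mM pyruvate and 10 mM lactate, then treated 24 h at 37 °C with 5 μM peptide (0.1% DMSO; concentration assumes ~2000 Da). Medium glucose measured colorimetrically at 570 nm. Values are percent of untreated-cell glucose production; 0.5-1 nM insulin served as inhibitor reference.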

184 (MASAKGCSSP) [compound 184]
Percent of Isoproterenol Control Activity (3T3-L1 Mouse Adipocytes): 104%
Percent of Control Activity (C2C12 Cells): 106%
Percent of Control Activity (H4-IIE Cells): 118%

185 (MLVMLEVMFLVN) [compound 185]
Percent of Isoproterenol Control Activity (3T3-L1 Mouse Adipocytes): 86%
Percent of Control Activity (C2C12 Cells): 92%
Percent of Control Activity (H4-IIE Cells): 119%

186 (MIINDEYWLVVLVMVHCPESMLLK) [compound 186]
Percent of Isoproterenol Control Activity (3T3-L1 Mouse Adipocytes): 105%
Percent of Control Activity (C2C12 Cells): 94%
Percent of Control Activity (H4-IIE Cells): 115%

187 (AYEGCCYSCKQEDNADVSGFWVEK) [compound 187]
Percent of Isoproterenol Control Activity (3T3-L1 Mouse Adipocytes): 102%
Percent of Control Activity (C2C12 Cells): 110%
Percent of Control Activity (H4-IIE Cells): 113%

188 (DWSNWVWGVQLYVWDFLGSGCWAW) [compound 188]
Percent of Isoproterenol Control Activity (3T3-L1 Mouse Adipocytes): 104%
Percent of Control Activity (C2C12 Cells): 113%
Percent of Control Activity (H4-IIE Cells): 125%

189 (FEELINVWVWVYMSQWEFYDGPCN) [compound 189]
Percent of Isoproterenol Control Activity (3T3-L1 Mouse Adipocytes): 95%
Percent of Control Activity (C2C12 Cells): 98%
Percent of Control Activity (H4-IIE Cells): 116%

190 (MYHSENSMMDHVTNNATGMNIMEK) [compound 190]
Percent of Isoproterenol Control Activity (3T3-L1 Mouse Adipocytes): 101%
Percent of Control Activity (C2C12 Cells): 107%
Percent of Control Activity (H4-IIE Cells): 118%

191 (LGWGWPGGWVWGGGFMVEERWWEL) [compound 191]
Percent of Isoproterenol Control Activity (3T3-L1 Mouse Adipocytes): 101%
Percent of Control Activity (C2C12 Cells): 95%
Percent of Control Activity (H4-IIE Cells): 111%

192 (LGWVVGSFFMGGVWVGRSGIGGML) [compound 192]
Percent of Isoproterenol Control Activity (3T3-L1 Mouse Adipocytes): 104%
Percent of Control Activity (C2C12 Cells): 98%
Percent of Control Activity (H4-IIE Cells): 110%

193 (LHNNPNPNTNYLPNWKQNTQMGLS) [compound 193]
Percent of Isoproterenol Control Activity (3T3-L1 Mouse Adipocytes): 105%
Percent of Control Activity (C2C12 Cells): 110%
Percent of Control Activity (H4-IIE Cells): 110%

194 (LSPKPQQLNQQNCSPEHYEPQLKT) [compound 194]
Percent of Isoproterenol Control Activity (3T3-L1 Mouse Adipocytes): 103%
Percent of Control Activity (C2C12 Cells): 92%
Percent of Control Activity (H4-IIE Cells): 109%

195 (LTSKYSNQPSTITHQLQLQSHPSP) [compound 195]
Percent of Isoproterenol Control Activity (3T3-L1 Mouse Adipocytes): 110%
Percent of Control Activity (C2C12 Cells): 112%
Percent of Control Activity (H4-IIE Cells): 108%

196 (LVPFDRGDLEGELTGTGMLACVIL) [compound 196]
Percent of Isoproterenol Control Activity (3T3-L1 Mouse Adipocytes): 98%
Percent of Control Activity (C2C12 Cells): 97%
Percent of Control Activity (H4-IIE Cells): 116%

197 (WVEVMMEVEIWCCEIVLGNSFSSQ) [compound 197]
Percent of Isoproterenol Control Activity (3T3-L1 Mouse Adipocytes): 100%
Percent of Control Activity (C2C12 Cells): 102%
Percent of Control Activity (H4-IIE Cells): 105%

198 (PIVTIMSPSWLEVEKATIFLMSFC) [compound 198]
Percent of Isoproterenol Control Activity (3T3-L1 Mouse Adipocytes): 112%
Percent of Control Activity (C2C12 Cells): 88%
Percent of Control Activity (H4-IIE Cells): 100%

199 (PLCKIHCRIHLYYQSLPHNNIHVP) [compound 199]
Percent of Isoproterenol Control Activity (3T3-L1 Mouse Adipocytes): 105%
Percent of Control Activity (C2C12 Cells): 94%
Percent of Control Activity (H4-IIE Cells): 111%

200 (RLLAWGNTWWQLLWNEGLFFWLEL) [compound 200]
Percent of Isoproterenol Control Activity (3T3-L1 Mouse Adipocytes): 104%
Percent of Control Activity (C2C12 Cells): 93%
Percent of Control Activity (H4-IIE Cells): 97%

201 (TKNFHQTPPPPLLATALKHISAKP) [compound 201]
Percent of Isoproterenol Control Activity (3T3-L1 Mouse Adipocytes): 102%
Percent of Control Activity (C2C12 Cells): 96%
Percent of Control Activity (H4-IIE Cells): 109%

202 (MWVIEEYAKILRSWVWFNPPQLPA) [compound 202]
Percent of Isoproterenol Control Activity (3T3-L1 Mouse Adipocytes): 93%
Percent of Control Activity (C2C12 Cells): 89%
Percent of Control Activity (H4-IIE Cells): 103%

203 (KNIEAPLAW) [compound 203]
Percent of Isoproterenol Control Activity (3T3-L1 Mouse Adipocytes): 107%
Percent of Control Activity (C2C12 Cells): 98%
Percent of Control Activity (H4-IIE Cells): 102%

204 (RMGASIGSTTRLSTS) [compound 204]
Percent of Isoproterenol Control Activity (3T3-L1 Mouse Adipocytes): 111%
Percent of Control Activity (C2C12 Cells): 95%
Percent of Control Activity (H4-IIE Cells): 107%

205 (VQTVSISWASEMLVLVSFVVSV) [compound 205]
Percent of Isoproterenol Control Activity (3T3-L1 Mouse Adipocytes): 105%
Percent of Control Activity (C2C12 Cells): 99%
Percent of Control Activity (H4-IIE Cells): 102%

206 (SSSMMGEVASC) [compound 206]
Percent of Isoproterenol Control Activity (3T3-L1 Mouse Adipocytes): 95%
Percent of Control Activity (C2C12 Cells): 99%
Percent of Control Activity (H4-IIE Cells): 106%

207 (VVGSWCWSLSWVVGMR) [compound 207]
Percent of Isoproterenol Control Activity (3T3-L1 Mouse Adipocytes): 98%
Percent of Control Activity (C2C12 Cells): 90%
Percent of Control Activity (H4-IIE Cells): 103%

208 (CHWAGGASNTGDA) [compound 208]
Percent of Isoproterenol Control Activity (3T3-L1 Mouse Adipocytes): 103%
Percent of Control Activity (C2C12 Cells): 89%
Percent of Control Activity (H4-IIE Cells): 107%

209 (FAVSMMWSLE) [compound 209]
Percent of Isoproterenol Control Activity (3T3-L1 Mouse Adipocytes): 97%
Percent of Control Activity (C2C12 Cells): 102%
Percent of Control Activity (H4-IIE Cells): 104%

210 (MKVDATMDFT) [compound 210]
Percent of Isoproterenol Control Activity (3T3-L1 Mouse Adipocytes): 95%
Percent of Control Activity (C2C12 Cells): 92%
Percent of Control Activity (H4-IIE Cells): 100%

Source: patent publication US20220332774A1, “THERAPEUTIC MITOCHONDRIAL PEPTIDES” (priority 2019, published 2022)
